Source: US20240158446A1, “CYCLIC COMPOUND HAVING SELECTIVE INHIBITORY ACTION ON KRAS OVER HRAS AND NRAS” (CHUGAI SEIYAKU KABUSHIKI KAISHA, priority 2021, published 2024)
Read-outs that look alike come from different tables or passages of the source. Where a SMILES comes first, the peptide text is derived from it. Bridges are numbered along the chain shown (N, C = ends). [ ]: non-standard residue; d: D form. The star is where a group is joined. hPhe(3-Cl-4-CF3) = N[C@@H](CCc1ccc(C(F)(F)F)c(Cl)c1)C(=O)O; NPrPhe(4-CF3) = CCCN[C@@H](Cc1ccc(C(F)(F)F)cc1)C(=O)O; NMeGly(cPent) = CN[C@H](C(=O)O)C1CCCC1; Hyp = O=C(O)[C@@H]1C[C@@H](O)CN1; NMeD = CN[C@@H](CC(=O)O)C(=O)O; NMeL = CN[C@@H](CC(C)C)C(=O)O; Morpholide = C1CN(*)CCO1; Ac5c = NC1(C(=O)O)CCCC1; Ethyl(2,2-F2) = FC(F)C*; NEtG = CCNCC(=O)O; Sar = CNCC(=O)O

What was measured:
[1] = biological target: GDP-bound KRAS wild-type protein (Homo sapiens, UniProt P01116); test: Binding to KRAS by surface plasmon resonance (SPR), Single Cycle Kinetics; conditions: GDP-bound KRAS wild-type protein, read-out: KRAS KD
GDP-bound KRAS wild-type protein, sequence (P01116 whole entry): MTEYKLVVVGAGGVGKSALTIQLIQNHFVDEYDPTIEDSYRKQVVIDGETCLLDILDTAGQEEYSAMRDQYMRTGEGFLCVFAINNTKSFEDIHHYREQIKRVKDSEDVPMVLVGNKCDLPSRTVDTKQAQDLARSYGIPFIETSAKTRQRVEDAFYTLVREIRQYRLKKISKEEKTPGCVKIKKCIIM

[2] = biological target: GDP-bound NRAS wild-type protein (Homo sapiens, UniProt P01111); test: Binding to NRAS by surface plasmon resonance (SPR), Single Cycle Kinetics; conditions: for NRAS/KRAS (ratio of KD value for NRAS to KD value for KRAS) / NRAS/KRAS (ratio of KD value with respect to NRAS to KD value with respect to KRAS): SPR, GDP-bound NRAS wild-type protein vs GDP-bound KRAS wild-type protein; for NRAS/KRAS (ratio of KD value with respect to GDP-bound NRAS wild-type protein to KD value with respect to KRAS): SPR KD ratio NRAS/KRAS, class symbols
GDP-bound NRAS wild-type protein, sequence (P01111 whole entry): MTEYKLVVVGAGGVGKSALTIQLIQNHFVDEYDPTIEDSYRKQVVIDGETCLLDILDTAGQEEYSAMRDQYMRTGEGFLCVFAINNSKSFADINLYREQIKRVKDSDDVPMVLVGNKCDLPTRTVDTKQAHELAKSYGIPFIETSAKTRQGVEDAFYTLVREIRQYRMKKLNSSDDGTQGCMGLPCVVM

[3] = biological target: GDP-bound HRAS wild-type protein (Homo sapiens, UniProt P01112); test: Binding to HRAS by surface plasmon resonance (SPR), Single Cycle Kinetics; conditions: for HRAS/KRAS (ratio of KD value for HRAS to KD value for KRAS) / HRAS/KRAS (ratio of KD value with respect to HRAS to KD value with respect to KRAS): SPR, GDP-bound HRAS wild-type protein vs GDP-bound KRAS wild-type protein; for HRAS/KRAS (ratio of KD value with respect to GDP-bound HRAS wild-type protein to KD value with respect to KRAS): SPR KD ratio HRAS/KRAS, class symbols
GDP-bound HRAS wild-type protein, sequence (P01112 whole entry): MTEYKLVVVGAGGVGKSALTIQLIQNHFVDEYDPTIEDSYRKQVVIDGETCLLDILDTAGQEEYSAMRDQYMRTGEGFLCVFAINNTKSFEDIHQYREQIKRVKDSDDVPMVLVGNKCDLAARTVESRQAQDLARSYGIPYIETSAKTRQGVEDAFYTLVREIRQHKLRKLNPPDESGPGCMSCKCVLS

[4] = SPR Single Cycle Kinetics, 1:1 binding model

Kd [1, 4]	Kd ([1]; SPR, Single Cycle Kinetics)	SMILES	NRAS/KRAS (ratio of KD value for NRAS to KD value for KRAS) [2]	HRAS/KRAS (ratio of KD value for HRAS to KD value for KRAS) [3]	also measured
0.24 nM		CCCN1C(=O)CN(C)C(=O)CN(C)C(=O)[C@H]([C@@H](C)CC)NC(=O)[C@H](CC(C)C)N(C)C(=O)C[C@@H](C(=O)N2CCOCC2)N(C)C(=O)[C@H](C2CCCC2)N(C)C(=O)C2(CCCC2)NC(=O)CN(CC)C(=O)[C@H](CCc2ccc(C(F)(F)F)c(Cl)c2)NC(=O)CN(C)C(=O)[C@@H]1Cc1ccc(C(F)(F)F)cc1 [PP0144] ([NMeL]I[Sar][Sar][NPrPhe(4-CF3)][Sar][hPhe(3-Cl-4-CF3)][NEtG][Ac5c][NMeGly(cPent)][NMeD]-Morpholide; lactam N-11)	B (a compound having 3 or more and less than 10 is denoted as B)	C (A compound having a KD ratio of 0.1 or more and less than 3 is denoted as C)	
2.2 nM		CCC[C@H]1C(=O)N[C@@H]([C@@H](C)CC)C(=O)N(C2CC2)CC(=O)N(C)[C@H]2C/C=C\CCN(C2=O)[C@@H](Cc2ccc(C(F)(F)F)cc2)C(=O)N(C)CC(=O)N[C@@H](CCc2ccc(Cl)c(Cl)c2)C(=O)N2C[C@H](OCC)C[C@H]2C(=O)NC2(CC(C)(C)C2)C(=O)N(C)[C@@H](CC2CCC2)C(=O)N(C)[C@H](C(=O)N(C)C)CC(=O)N1C [PP2819]			NRAS/KRAS (ratio of KD value with respect to GDP-bound NRAS wild-type protein to KD value with respect to KRAS) [2]: A (a compound having 10 or more and less than 20 is denoted as A); HRAS/KRAS (ratio of KD value with respect to GDP-bound HRAS wild-type protein to KD value with respect to KRAS) [3]: A (a compound having 10 or more and less than 20 is denoted as A)
	0.049 nM	CCO[C@@H]1C[C@H]2C(=O)NC3(CCC3)C(=O)N(C)[C@@H](C3CCCC3)C(=O)N(C)[C@H](C(=O)N(C)C)CC(=O)N(C)[C@@H](CCC(F)F)C(=O)N[C@@H]([C@@H](C)CC)C(=O)N(C)CC(=O)N(C)[C@H]3C/C=C\CCN(C3=O)[C@@H](Cc3ccc(C(F)(F)F)cc3)C(=O)N(C)CC(=O)N[C@@H](CCc3cc(F)c(C(F)(F)F)c(F)c3)C(=O)N2C1 [PP1121, (2S,8S,12R,14S,20S,23S,27S,30S,36S,38Z)-20-cyclopentyl-27-(3,3-difluoropropyl)-8-[2-[3,5-difluoro-4-(trifluoromethyl)phenyl]ethyl]-12-ethoxy-N,N,4,19,22,26,32,35-octamethyl-30-[(1S)-1-methylpropyl]-3,6,9,15,18,21,25,28,31,34,42-undecaoxo-2-[[4-(trifluoromethyl)phenyl]methyl]spiro[1,4,7,10,16,19,22,26,29,32,35-undecazatricyclo[34.5.1.0^10,14]dotetracont-38-ene-17,1′-cyclobutane]-23-carboxamide]	A (a compound having 10 or more and less than 20 is denoted as A)	A (a compound having 10 or more and less than 20 is denoted as A)	
0.054 nM		CCCN1C(=O)CN(C)C(=O)CN(C)C(=O)[C@H]([C@@H](C)CC)NC(=O)[C@H](CC(C)C)N(C)C(=O)C[C@@H](C(=O)N2CCOCC2)N(C)C(=O)[C@H](C2CCCC2)N(C)C(=O)C2(CCCC2)NC(=O)[C@@H]2C[C@@H](OCC(F)F)CN2C(=O)[C@H](CCc2ccc(C(F)(F)F)c(Cl)c2)NC(=O)CN(C)C(=O)[C@@H]1Cc1ccc(C(F)(F)F)cc1 [PP0246] ([NMeL]I[Sar][Sar][NPrPhe(4-CF3)][Sar][hPhe(3-Cl-4-CF3)][Hyp](Ethyl(2,2-F2))[Ac5c][NMeGly(cPent)][NMeD]-Morpholide; lactam N-11)	B (a compound having 3 or more and less than 10 is denoted as B)	C (A compound having a KD ratio of 0.1 or more and less than 3 is denoted as C)	
		CC[C@H](C)[C@@H]1NC(=O)[C@H](CC2CC2)N(C)C(=O)C[C@@H](C(=O)N(CC)CC)N(C)C(=O)[C@H](C2CCCC2)N(C)C(=O)C2(CC(C)(C)C2)NC(=O)[C@@H]2C[C@@H](F)CN2C(=O)[C@H](CCc2cc(F)c(C(F)(F)F)c(F)c2)NC(=O)CN(C)C(=O)[C@H](Cc2ccc(C(F)(F)F)cc2)N2CC/C=C\C[C@@H](C2=O)N(C)C(=O)CN(C)C1=O [PP1571]			Kd ([1]; SPR, Single Cycle Kinetics, 1:1 binding model): 0.15 nM; NRAS/KRAS (ratio of KD value for NRAS to KD value for KRAS) ([2]; KD ratio class): A (a compound having 10 or more and less than 20 is denoted as A); HRAS/KRAS (ratio of KD value for HRAS to KD value for KRAS) ([3]; KD ratio class): A (a compound having 10 or more and less than 20 is denoted as A)
	0.11 nM	CCCOC[C@H]1C(=O)N[C@@H]([C@@H](C)CC)C(=O)N(C2CC2)CC(=O)N(C)[C@H]2C/C=C\CCN(C2=O)[C@@H](Cc2ccc(C)cc2)C(=O)N(C)CC(=O)N[C@@H](CCc2ccc(C(F)(F)F)c(OC)c2)C(=O)N2C[C@H](OCC)C[C@H]2C(=O)N(C)C2(CCC2)C(=O)N(C)[C@@H](C2CCCC2)C(=O)N(C)[C@H](C(=O)N(C)C)CC(=O)N1C [PP2330]	A (a compound having 10 or more and less than 20 is denoted as A)	A (a compound having 10 or more and less than 20 is denoted as A)	
	0.11 nM	CCO[C@@H]1C[C@H]2C(=O)NC3(CCC3)C(=O)N(C)[C@@H](C3CCCC3)C(=O)N(C)[C@H](C(=O)N(C)C)CC(=O)N(C)[C@H]3CCCCCCc4ccc(cc4)C[C@@H](C(=O)N(C)CC(=O)N[C@@H](CCc4ccc(C(F)(F)F)c(OC)c4)C(=O)N2C1)N1CC/C=C\C[C@@H](C1=O)N(C)C(=O)CN(C)C(=O)[C@H]([C@@H](C)CC)NC3=O [PP2264]	AA (a compound having 20 or more is denoted as AA)	A (a compound having 10 or more and less than 20 is denoted as A)	
	0.054 nM	C=CC[C@H]1C(=O)N[C@@H]([C@@H](C)CC)C(=O)N(C)CC(=O)N(C)[C@H]2C/C=C\CCN(C2=O)[C@@H](Cc2ccc(C(F)(F)F)cc2)C(=O)N(C)CC(=O)N[C@@H](CCc2cc(F)c(C(F)(F)F)c(F)c2)C(=O)N2C[C@H](OCC)C[C@H]2C(=O)NC2(CCC2)C(=O)N(C)[C@@H](C2CCCC2)C(=O)N(C)[C@H](C(=O)N(C)C)CC(=O)N1C [PP1114, (2S,8S,12R,14S,20S,23S,27S,30S,36S,38Z)-27-allyl-20-cyclopentyl-8-[2-[3,5-difluoro-4-(trifluoromethyl)phenyl]ethyl]-12-ethoxy-N,N,4,19,22,26,32,35-octamethyl-30-[(1S)-1-methylpropyl]-3,6,9,15,18,21,25,28,31,34,42-undecaoxo-2-[[4-(trifluoromethyl)phenyl]methyl]spiro[1,4,7,10,16,19,22,26,29,32,35-undecazatricyclo[34.5.1.0^10,14]dotetracont-38-ene-17,1′-cyclobutane]-23-carboxamide]	A (a compound having 10 or more and less than 20 is denoted as A)	A (a compound having 10 or more and less than 20 is denoted as A)	
0.03 nM		CCC[C@H]1C(=O)N[C@@H]([C@@H](C)CC)C(=O)N(C)CC(=O)N(C)[C@H]2CCCCN(C2=O)[C@@H](Cc2ccc(C(F)(F)F)cc2)C(=O)N(C)CC(=O)N[C@@H](CCc2cc(F)c(C(F)(F)F)c(F)c2)C(=O)N2C[C@H](OCC)C[C@H]2C(=O)NC2(CCC2)C(=O)N(C)[C@@H](C2CCCC2)C(=O)N(C)[C@H](C(=O)N2CCOCC2)CC(=O)N1C [PP0709]			NRAS/KRAS (ratio of KD value with respect to NRAS to KD value with respect to KRAS) [2]: C (A compound having a KD ratio of 0.1 or more and less than 3 is denoted as C); HRAS/KRAS (ratio of KD value with respect to HRAS to KD value with respect to KRAS) [3]: B (a compound having 3 or more and less than 10 is denoted as B)
0.021 nM		CCO[C@@H]1C[C@H]2C(=O)NC3(CCC3)C(=O)N(C)[C@@H](C3CCCC3)C(=O)N(C)[C@H](C(=O)N(C)C)CC(=O)N(C)[C@@H](CC3CC3)C(=O)N[C@@H]([C@@H](C)CC)C(=O)N(C)CC(=O)N(C)[C@H]3CCCCN(C3=O)[C@@H](Cc3ccc(C(F)(F)F)cc3)C(=O)N(C)CC(=O)N[C@@H](CCc3cc(F)c(C(F)(F)F)c(F)c3)C(=O)N2C1 [PP0697]			NRAS/KRAS (ratio of KD value with respect to NRAS to KD value with respect to KRAS) [2]: C (A compound having a KD ratio of 0.1 or more and less than 3 is denoted as C); HRAS/KRAS (ratio of KD value with respect to HRAS to KD value with respect to KRAS) [3]: C (A compound having a KD ratio of 0.1 or more and less than 3 is denoted as C)
0.11 nM		CCCOC[C@H]1C(=O)N[C@@H]([C@@H](C)CC)C(=O)N(C)CC(=O)N(C)[C@H]2C/C=C\CCN(C2=O)[C@@H](Cc2ccc(C(F)(F)F)cc2)C(=O)N(C)CC(=O)N[C@@H](CCc2ccc(C(F)(F)F)c(Cl)c2)C(=O)N2C[C@H](OCC)C[C@H]2C(=O)NC2(CCC2)C(=O)N(C)[C@@H](C2CCCC2)C(=O)N(C)[C@H](C(=O)N(C)CCC)CC(=O)N1C [PP2831]			NRAS/KRAS (ratio of KD value with respect to GDP-bound NRAS wild-type protein to KD value with respect to KRAS) [2]: A (a compound having 10 or more and less than 20 is denoted as A); HRAS/KRAS (ratio of KD value with respect to GDP-bound HRAS wild-type protein to KD value with respect to KRAS) [3]: A (a compound having 10 or more and less than 20 is denoted as A)
	0.018 nM	CCCN1C(=O)CN(C)C(=O)CN(C)C(=O)[C@H]([C@@H](C)CC)NC(=O)[C@@H]2CCCCCCOc3ccc(cc3)C[C@H]1C(=O)N(C)CC(=O)N[C@@H](CCc1cc(F)c(C(F)(F)F)c(F)c1)C(=O)N1C[C@H](OCC)C[C@H]1C(=O)NC1(CCCC1)C(=O)N(C)[C@@H](C1CCCC1)C(=O)N(C)[C@H](C(=O)N(C)C)CC(=O)N2C [PP0896]	C (A compound having a KD ratio of 0.1 or more and less than 3 is denoted as C)	C (A compound having a KD ratio of 0.1 or more and less than 3 is denoted as C)	
